Data on one compound can be found in patent US11285167B2, “Synergistic nutritional neuroprotective compositions for ameliorating neural dysfunction” (CELAGENEX RESEARCH (INDIA) PVT. LTD., priority 2019, dated 2022).

Molecules are shown by their SMILES.

The subject of assay [1] is Major depression disorder in Wistar rats. Description: Forced swim test in Reserpine-induced major depression disorder. Type of assay: in vivo. The note with it: forced swim test 5 min, Reserpine 1.0 mg/kg induced, oral daily 7 days, mean ± SEM, n = 6.
The test system is the same in assay [2]. The experiment in a line: Open field test (ambulatory behavior) in Reserpine-induced major depression disorder. Type of assay: in vivo. The note with it: 6 minute session, Reserpine induced, oral daily 7 days, mean ± SEM, n = 6.

As to `CN(C)CCC[C@@]1(c2ccc(F)cc2)OCc2cc(C#N)ccc21` [Escitalopram, reference compound], in assay [1], the Climbing came to 20.17 ± 0.87, the Immobility was determined as 91.67 ± 0.80 and the “Total time spent in active swimming” value turned out to be 208.33 ± 0.80 s. Also, the “No. of open arm entries (Open field test)” value in assay [2] is 47.83 ± 0.60.
